Measurements from ChEMBL document CHEMBL1201862, “PubChem BioAssay data set” (2004).
Activity calls are given as the source filed them. Rule as the data show it, for most assays here: actives have a measured EC50 and inactives only a lower limit.

Tests used:
[1] = target: Eukaryotic translation initiation factor 4H (Homo sapiens, UniProt Q15056); test: human eIF4H binding inhibitors, primary screen, translation initiation inhibitor project, biochemical, uHTS, fluorescence polarization (AID 2012)
[2] = target: Polyadenylate-binding protein 1 (Homo sapiens, UniProt P11940); test: PABP poly(A) RNA binding inhibitors, primary screen, biochemical, fluorescence polarization, uHTS (AID 2014)
Chain of Polyadenylate-binding protein 1 (P11940 whole entry): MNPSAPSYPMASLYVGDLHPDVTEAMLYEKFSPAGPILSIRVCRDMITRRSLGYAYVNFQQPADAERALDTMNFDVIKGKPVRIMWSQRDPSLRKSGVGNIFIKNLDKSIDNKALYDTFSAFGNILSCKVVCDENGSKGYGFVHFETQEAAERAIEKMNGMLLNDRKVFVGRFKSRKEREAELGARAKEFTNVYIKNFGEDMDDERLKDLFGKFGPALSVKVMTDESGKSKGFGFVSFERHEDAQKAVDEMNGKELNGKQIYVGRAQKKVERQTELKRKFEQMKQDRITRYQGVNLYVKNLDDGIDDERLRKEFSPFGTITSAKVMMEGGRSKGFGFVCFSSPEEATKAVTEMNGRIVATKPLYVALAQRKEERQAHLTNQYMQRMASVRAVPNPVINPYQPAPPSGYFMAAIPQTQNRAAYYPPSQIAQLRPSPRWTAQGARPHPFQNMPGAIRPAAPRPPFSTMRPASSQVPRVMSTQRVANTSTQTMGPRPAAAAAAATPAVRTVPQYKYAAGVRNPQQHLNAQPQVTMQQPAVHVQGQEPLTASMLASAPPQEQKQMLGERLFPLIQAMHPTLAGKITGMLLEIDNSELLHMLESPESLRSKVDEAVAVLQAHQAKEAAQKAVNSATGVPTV

[3] = target: T1, DNA dC->dU-editing enzyme APOBEC-3A (Homo sapiens, UniProt P31941); test: Dose Response confirmation of small molecule APOBEC3A DNA Deaminase Inhibitors via a fluorescence-based single-stranded DNA deaminase assay. [Related pubchem assays (depositor defined):AID493011, AID493024]; format: functional
T1 sequence (P31941 whole entry): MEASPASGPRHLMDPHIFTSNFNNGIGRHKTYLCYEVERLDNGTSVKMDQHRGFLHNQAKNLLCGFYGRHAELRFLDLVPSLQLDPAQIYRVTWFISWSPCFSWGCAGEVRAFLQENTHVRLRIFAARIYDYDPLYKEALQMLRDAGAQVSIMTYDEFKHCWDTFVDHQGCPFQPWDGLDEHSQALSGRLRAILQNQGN

[4] = target: T2, DNA dC->dU-editing enzyme APOBEC-3G (Homo sapiens, UniProt Q9HC16); format: functional;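 also: Dose-response counterscreen measuring inhibition of APOBEC3G DNA deaminase activity, run while confirming APOBEC3A inhibitors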
T2 sequence (Q9HC16 whole entry): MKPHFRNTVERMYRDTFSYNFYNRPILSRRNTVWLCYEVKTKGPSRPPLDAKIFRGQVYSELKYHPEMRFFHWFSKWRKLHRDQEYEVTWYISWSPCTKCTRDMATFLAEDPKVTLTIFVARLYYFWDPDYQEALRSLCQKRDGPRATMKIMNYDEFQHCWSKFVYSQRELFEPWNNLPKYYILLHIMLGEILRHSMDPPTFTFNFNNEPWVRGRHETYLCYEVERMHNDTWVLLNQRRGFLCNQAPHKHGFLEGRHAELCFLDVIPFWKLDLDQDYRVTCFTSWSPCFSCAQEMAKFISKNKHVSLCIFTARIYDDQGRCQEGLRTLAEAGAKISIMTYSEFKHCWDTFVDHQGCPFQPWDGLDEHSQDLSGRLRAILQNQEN

[5] = target: T2, DNA dC->dU-editing enzyme APOBEC-3G; test: APOBEC3G deaminase inhibitors, SAR follow-up, biochemical, fluorescence, single-stranded DNA substrate (AID 602136); format: functional; conditions: read-out: IC50_Mean
[6] = target: T1, DNA dC->dU-editing enzyme APOBEC-3A; test: SAR analysis of small molecule inhibitors of APOBEC3A DNA Deaminase via a fluorescence-based single-stranded DNA deaminase assay.; format: functional; conditions: read-out: IC50_Mean
[7] = target: Lysine-specific demethylase 4C (Homo sapiens, UniProt Q9H3R0); test: GASC-1 (JMJD2C) histone demethylase inhibitors, dose response, biochemical, DELFIA europium, cherry-picked samples (AID 488835); format: functional
Chain of Lysine-specific demethylase 4C (Q9H3R0 whole entry): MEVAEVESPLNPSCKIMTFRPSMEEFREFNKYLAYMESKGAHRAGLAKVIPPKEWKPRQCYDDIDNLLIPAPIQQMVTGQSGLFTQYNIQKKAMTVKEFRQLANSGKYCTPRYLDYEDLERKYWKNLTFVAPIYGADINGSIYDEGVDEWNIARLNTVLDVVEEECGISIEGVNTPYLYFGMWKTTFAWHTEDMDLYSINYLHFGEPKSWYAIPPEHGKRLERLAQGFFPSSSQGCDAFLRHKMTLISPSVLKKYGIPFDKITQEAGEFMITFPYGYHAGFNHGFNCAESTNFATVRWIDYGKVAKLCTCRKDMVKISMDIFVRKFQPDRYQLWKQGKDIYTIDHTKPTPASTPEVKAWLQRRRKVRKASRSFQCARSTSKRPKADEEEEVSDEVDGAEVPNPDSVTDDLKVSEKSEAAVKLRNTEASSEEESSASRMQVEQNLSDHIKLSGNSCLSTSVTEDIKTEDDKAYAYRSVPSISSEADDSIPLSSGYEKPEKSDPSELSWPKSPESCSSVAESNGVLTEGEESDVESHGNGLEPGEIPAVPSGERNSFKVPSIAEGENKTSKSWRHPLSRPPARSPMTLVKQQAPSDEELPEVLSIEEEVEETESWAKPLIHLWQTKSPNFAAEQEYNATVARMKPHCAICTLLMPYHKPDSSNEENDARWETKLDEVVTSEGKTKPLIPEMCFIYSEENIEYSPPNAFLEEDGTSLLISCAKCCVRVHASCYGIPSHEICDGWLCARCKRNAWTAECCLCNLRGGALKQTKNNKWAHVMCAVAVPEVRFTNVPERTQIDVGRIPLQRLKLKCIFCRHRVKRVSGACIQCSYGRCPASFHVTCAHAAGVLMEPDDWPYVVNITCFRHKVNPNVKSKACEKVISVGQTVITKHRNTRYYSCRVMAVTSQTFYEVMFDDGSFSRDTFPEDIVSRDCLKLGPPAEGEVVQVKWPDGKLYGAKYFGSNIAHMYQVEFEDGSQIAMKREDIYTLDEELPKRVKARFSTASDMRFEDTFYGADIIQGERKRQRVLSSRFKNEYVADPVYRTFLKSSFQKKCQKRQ

[8] = target: Apoptotic protease-activating factor 1 (Homo sapiens, UniProt O14727); format: functional
Chain of Apoptotic protease-activating factor 1 (O14727 whole entry): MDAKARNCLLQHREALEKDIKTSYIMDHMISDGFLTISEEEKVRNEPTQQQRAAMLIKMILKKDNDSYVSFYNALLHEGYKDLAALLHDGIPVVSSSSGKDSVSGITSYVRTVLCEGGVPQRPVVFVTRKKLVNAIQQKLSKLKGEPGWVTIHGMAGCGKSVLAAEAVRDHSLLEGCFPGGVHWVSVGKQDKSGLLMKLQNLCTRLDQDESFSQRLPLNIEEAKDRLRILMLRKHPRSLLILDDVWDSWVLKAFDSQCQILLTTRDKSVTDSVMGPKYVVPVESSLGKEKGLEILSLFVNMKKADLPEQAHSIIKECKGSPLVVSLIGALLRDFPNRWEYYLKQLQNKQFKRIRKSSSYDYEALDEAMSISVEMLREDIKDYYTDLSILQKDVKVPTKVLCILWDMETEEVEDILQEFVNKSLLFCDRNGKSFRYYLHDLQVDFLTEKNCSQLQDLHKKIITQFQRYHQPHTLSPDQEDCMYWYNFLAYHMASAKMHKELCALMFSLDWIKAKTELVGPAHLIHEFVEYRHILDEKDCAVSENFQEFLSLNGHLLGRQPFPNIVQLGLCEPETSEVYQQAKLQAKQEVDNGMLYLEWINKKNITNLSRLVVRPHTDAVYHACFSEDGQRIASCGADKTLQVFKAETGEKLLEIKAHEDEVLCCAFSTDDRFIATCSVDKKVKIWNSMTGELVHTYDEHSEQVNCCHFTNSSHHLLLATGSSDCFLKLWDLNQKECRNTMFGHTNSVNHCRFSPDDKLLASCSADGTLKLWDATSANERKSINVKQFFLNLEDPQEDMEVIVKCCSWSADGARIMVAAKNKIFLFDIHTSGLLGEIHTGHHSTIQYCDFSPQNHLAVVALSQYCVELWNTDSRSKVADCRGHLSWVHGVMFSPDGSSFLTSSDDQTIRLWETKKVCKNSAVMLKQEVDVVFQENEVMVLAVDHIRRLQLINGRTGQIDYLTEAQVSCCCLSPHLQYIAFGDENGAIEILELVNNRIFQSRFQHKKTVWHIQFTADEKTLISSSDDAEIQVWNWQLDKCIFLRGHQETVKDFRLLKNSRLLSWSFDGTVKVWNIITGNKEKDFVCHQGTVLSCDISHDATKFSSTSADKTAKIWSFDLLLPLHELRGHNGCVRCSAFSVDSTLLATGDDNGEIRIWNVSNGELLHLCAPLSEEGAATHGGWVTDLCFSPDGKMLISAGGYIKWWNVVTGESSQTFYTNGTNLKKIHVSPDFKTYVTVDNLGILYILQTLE

[9] = NIH-3T3 fibroblast cytotoxicity, dose response, cytotoxicity control, cell-based, fluorescence, Alamar Blue, secondary assay (AID 2327); format: functional;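 also: NIH-3T3 mouse fibroblasts cultured with fluconazole at 8 µg/mL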
BJ [10] = test: cytotoxicity toward BJ-TERT fibroblasts, dose response, cell-based, RAS-independent, luminescence (AID 1933); format: functional; conditions: Homo sapiens
cells [11] = format: functional, cell-based
BJ [12] = test: cells; format: functional, cell-based; conditions: Homo sapiens
[13] = C. albicans growth with fluconazole, confirmation, fluorescence, retest (AID 2467); format: functional, cell-based
[14] = Luminescence-based counterscreen assay for KLF5 inhibitors: dose response cell-based high throughput screening assay to identify cytotoxic compounds using the IEC-6 intestinal epithelial cell line. [Related pubchem assays: 1700 (Primary screen.), 1834 (Confirmation screen.), 1858 (Summary AID.), 1905 (Counterscreen.)]; format: functional
[15] = inhibitors of intracellular T. cruzi replication, confirmation, NIH3T3 host cells, beta-gal luminescence (AID 2044); format: functional, cell-based;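 also: intracellular parasites grown in NIH/3T3 mouse fibroblasts as host cells; luminescent beta-galactosidase reporter signal from transgenic T. cruzi replicating inside host cells; inhibitors lower the luminescence signal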
cells [16] = format: functional, cell-based; remark: listed apart in the source
[17] = target: T3, Serine/threonine-protein phosphatase (Candida dubliniensis (strain CD36 / CBS 7987 / NCPF 3949 / NRRLY-17841) (Yeast), UniProt B9W6M3); test: calcineurin pathway inhibitors in yeast reporter, dose response, S. cerevisiae, CDRE-lacZ, luminescence, secondary (AID 2388); format: functional, cell-based;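 also: yeast reporter cells carrying a calcineurin-responsive lacZ construct stimulated with calcium chloride; luminescent beta-galactosidase reporter signal in whole cells rather than isolated phosphatase activity; potency for inhibition where a drop in reporter signal means calcineurin blockade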
T3 sequence (B9W6M3 whole entry): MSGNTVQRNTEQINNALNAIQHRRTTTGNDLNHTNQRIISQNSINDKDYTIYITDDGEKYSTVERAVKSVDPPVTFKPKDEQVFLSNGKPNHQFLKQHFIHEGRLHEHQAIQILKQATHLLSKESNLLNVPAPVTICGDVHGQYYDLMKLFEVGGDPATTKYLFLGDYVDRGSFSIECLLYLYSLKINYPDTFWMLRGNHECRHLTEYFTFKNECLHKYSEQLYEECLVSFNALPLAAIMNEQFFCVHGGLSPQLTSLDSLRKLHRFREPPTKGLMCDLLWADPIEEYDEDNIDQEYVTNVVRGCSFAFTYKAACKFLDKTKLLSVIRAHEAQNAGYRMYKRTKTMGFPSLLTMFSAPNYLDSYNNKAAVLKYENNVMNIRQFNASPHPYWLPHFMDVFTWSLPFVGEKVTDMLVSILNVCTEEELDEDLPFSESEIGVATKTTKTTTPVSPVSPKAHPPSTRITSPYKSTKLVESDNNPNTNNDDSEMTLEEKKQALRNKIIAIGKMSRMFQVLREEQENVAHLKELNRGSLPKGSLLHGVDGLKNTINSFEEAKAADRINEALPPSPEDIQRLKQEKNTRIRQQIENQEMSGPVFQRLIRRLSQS

[18] = cytotoxicity toward NIH3T3 fibroblasts, dose response, counter-screen, cell-based, ATP luminescence, mouse fibroblasts (AID 2010); format: functional;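 also: cells exposed to compound for about 90 hours before reading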
BJ [19] = test: cytotoxicity toward BJ-TERT-LT-ST fibroblasts, dose response, cell-based, RAS-independent, luminescence (AID 1935); format: functional; conditions: Homo sapiens;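 also: BJ fibroblasts immortalized with TERT plus LT and ST oncogenes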
[20] = cytotoxicity toward DRD oncogenic fibroblasts, dose response, cell-based, non-viral oncogenic, luminescence (AID 1934); format: functional; conditions: Homo sapiens
HEK293 = test: inhibitors of LMP1-driven NF-kB reporter, dose response, cell-based, HEK293, luciferase, cherry-pick (AID 588343); format: functional; conditions: Homo sapiens
[21] = target: Latent membrane protein 1 (Human herpesvirus 4 (strain B95-8), UniProt P03230); test: TES1-eGFP NF-kB reporter inhibition versus Tet-On dsRED, dose response, selectivity assay for LMP1 NF-kB inhibitor project, imaging, HEK293T, dual-color eGFP/dsRED, cherry-picks (AID 588398); format: functional, cell-based
Chain of Latent membrane protein 1 (P03230 whole entry): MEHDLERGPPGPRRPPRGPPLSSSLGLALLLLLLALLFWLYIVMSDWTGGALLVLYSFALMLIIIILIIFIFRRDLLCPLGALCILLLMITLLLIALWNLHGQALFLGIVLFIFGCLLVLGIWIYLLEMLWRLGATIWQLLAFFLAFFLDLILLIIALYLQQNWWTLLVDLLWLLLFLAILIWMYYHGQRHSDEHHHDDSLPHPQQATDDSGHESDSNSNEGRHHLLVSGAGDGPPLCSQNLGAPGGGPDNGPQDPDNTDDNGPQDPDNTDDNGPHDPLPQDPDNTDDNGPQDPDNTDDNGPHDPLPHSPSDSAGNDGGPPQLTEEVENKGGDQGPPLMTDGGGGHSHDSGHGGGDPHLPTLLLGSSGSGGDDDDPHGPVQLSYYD

[22] = target: ATP-dependent molecular chaperone HSP82 (Candida albicans (strain WO-1) (Yeast), UniProt C4YTQ8); test: loss of DOC-induced GRE-beta-galactosidase reporter signal, dose response, Hsp90 inhibitor project, S. cerevisiae, luminescence (AID 2400); format: functional, cell-based;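 also: beta-galactosidase luminescence from glucocorticoid response element reporter as proxy for Hsp90 function; inhibitor potency where signal loss means Hsp90 inhibition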
Chain of ATP-dependent molecular chaperone HSP82 (C4YTQ8 whole entry): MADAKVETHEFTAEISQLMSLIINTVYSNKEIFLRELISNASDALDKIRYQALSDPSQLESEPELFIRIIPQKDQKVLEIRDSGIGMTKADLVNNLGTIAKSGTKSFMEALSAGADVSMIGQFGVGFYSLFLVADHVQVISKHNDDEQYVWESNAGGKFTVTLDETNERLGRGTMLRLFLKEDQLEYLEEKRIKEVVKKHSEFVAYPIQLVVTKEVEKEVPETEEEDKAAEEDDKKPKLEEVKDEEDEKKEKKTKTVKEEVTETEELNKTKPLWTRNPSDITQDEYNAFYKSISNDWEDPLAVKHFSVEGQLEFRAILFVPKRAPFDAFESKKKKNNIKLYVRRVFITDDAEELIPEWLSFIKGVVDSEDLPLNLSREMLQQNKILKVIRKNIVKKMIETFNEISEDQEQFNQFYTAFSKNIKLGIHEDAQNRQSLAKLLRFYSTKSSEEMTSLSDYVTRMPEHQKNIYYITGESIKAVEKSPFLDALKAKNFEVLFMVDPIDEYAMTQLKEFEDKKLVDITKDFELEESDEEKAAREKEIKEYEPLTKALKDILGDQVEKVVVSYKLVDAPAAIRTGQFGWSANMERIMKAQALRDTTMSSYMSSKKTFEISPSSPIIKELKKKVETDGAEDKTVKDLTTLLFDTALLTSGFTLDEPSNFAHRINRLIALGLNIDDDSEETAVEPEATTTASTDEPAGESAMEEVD

CC1(C)Oc2ccc3ccc(=O)oc3c2C(/C=N/O)=C1Cl
IC50 [1]: > 100 µM (inactive) | IC50 [2]: 10.3 µM (active) | IC50 [3]: 4.97 µM (active) | IC50 [4]: 6.8 µM (active) | IC50 [5]: > 99 µM (inactive) | IC50 [6]: 43 µM (inactive)

Oc1cc(N/N=C/c2ccccc2)nc(O)n1
AC50 [7]: 8.88 µM (active) | IC50 [8]: 20 µM (active)

Cc1ccc(C(=O)N/N=C/c2c(O)ccc3ccccc23)cn1
EC50 [9]: > 150 µM (inactive) | EC50 (BJ [10]): 1 µM (active) | EC50 (cells [11]): 6.93 µM (active) | EC50 (BJ [12]): 10.4 µM (inconclusive) | EC50 [13]: 0.803 µM (active) | IC50 [14]: 3.96 µM (active) | EC50 [15]: 1.59 µM (active) | EC50 (cells [16]): > 350 µM (not active) | EC50 [17]: > 180 µM (inactive) | EC50 [18]: 10.9 µM (active) | EC50 (BJ [19]): 13.1 µM (active) | EC50 [20]: 2.72 µM (active) | AC50 (HEK293): 5.41 µM (active) | AC50 [21]: 9.88 µM (active) | EC50 [22]: > 150 µM (inactive)
